We go through 40 molecules from article PMC6522912, “Evaluation of the published kinase inhibitor set to identify multiple inhibitors of bacterial ATP-dependent mur ligases” (Journal of Enzyme Inhibition and Medicinal Chemistry, 2019).

Where two headings read alike, the source gives them in different places.

One experiment deals with E. coli MurC (Escherichia coli, UniProt P17952). In words: Malachite green inhibition assay, MurC. It is filed as biochemical. To be noted: for remaining activity at 100 µM: 0.25 h.
E. coli MurC, sequence (P17952 whole entry): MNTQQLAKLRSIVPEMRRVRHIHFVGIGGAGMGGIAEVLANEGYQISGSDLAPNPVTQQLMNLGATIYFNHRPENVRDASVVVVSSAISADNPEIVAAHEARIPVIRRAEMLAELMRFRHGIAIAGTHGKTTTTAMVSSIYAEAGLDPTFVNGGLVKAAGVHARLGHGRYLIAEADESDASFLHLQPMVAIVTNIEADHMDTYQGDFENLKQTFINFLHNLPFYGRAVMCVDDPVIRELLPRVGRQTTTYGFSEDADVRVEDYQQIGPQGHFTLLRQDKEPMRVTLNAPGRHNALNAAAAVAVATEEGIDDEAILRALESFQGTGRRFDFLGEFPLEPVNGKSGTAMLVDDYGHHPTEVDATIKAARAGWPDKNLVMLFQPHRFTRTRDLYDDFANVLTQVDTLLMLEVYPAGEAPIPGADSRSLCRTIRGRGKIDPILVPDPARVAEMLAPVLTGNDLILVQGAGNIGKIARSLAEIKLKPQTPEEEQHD
The target in another experiment is E. coli MurD (Escherichia coli, UniProt P14900). In words: biochemical. To be noted: for remaining activity at 100 µM: 0.25 h, Table S1, PKIS screening, read-out: RA [%] at 100 µM MurD. Summed up:
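Orthophosphate released by E. coli MurD quantified by malachite green (Biomol green) absorbance at 650 nm after 15 min at 37 °C. Residual activity relative to DMSO-only controls.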

For a further experiment, the target named is E. coli MurF (Escherichia coli, UniProt P11880). In words: biochemical. As to conditions: for remaining activity at 100 µM: 0.25 h, read-out: RA [%] at 100 µM MurF; for remaining activity at 100 µM / RA [%] at 100 µM MurF: Table S1, PKIS screening.
E. coli MurF, sequence (P11880 whole entry): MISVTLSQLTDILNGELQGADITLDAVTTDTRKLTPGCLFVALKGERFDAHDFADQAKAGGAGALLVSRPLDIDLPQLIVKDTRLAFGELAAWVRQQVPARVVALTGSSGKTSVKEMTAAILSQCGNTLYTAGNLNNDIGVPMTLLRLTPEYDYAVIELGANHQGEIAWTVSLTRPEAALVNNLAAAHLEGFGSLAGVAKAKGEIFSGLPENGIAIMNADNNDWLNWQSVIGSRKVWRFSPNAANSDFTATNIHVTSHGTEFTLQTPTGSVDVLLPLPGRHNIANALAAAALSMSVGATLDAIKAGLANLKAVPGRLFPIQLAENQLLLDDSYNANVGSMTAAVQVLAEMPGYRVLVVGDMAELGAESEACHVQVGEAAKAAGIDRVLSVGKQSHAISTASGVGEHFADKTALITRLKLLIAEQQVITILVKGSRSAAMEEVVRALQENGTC
The mark [1] stands for this setting: Table S1, PKIS screening, read-out: RA [%] at 100 µM MurC.
Setting [2] is: Table S3, aza stilbene compounds.
Where [3] appears, read: read-out: RA [%] at 100 µM MurC, Table S1, PKIS screening.

E. coli MurD, sequence (P14900 whole entry): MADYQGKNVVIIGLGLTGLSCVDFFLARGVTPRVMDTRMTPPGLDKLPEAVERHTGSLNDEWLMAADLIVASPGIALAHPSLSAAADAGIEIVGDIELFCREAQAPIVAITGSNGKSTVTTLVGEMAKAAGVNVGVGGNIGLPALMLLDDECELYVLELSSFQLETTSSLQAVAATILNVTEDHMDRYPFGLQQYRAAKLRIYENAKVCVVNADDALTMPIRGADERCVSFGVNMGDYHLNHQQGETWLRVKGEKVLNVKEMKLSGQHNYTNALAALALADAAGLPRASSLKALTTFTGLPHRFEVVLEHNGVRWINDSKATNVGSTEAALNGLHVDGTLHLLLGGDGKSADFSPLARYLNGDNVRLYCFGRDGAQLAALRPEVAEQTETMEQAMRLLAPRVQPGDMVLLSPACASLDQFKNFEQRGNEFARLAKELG

Consider `COc1cccc(-n2ncc3c(N/N=C/c4ccc(F)cc4)ncnc32)c1` [GW817396X], for which the remaining activity at 100 µM on E. coli MurC (setting [1]) was found to be 69%; on E. coli MurD it was 95%; at E. coli MurF, 41%.

In the case of `C[C@@H](Oc1cc(-n2cnc3ccc(OCC4CCN(C)CC4)cc32)sc1C(N)=O)c1ccccc1Cl` [GSK571989A], the remaining activity at 100 µM was determined as 51% at E. coli MurC (setting [1]), 53% at E. coli MurD and 53% at E. coli MurF.

For the molecule `Cc1cc(O)cc(C)c1C=Cc1cncc(C(=O)OC(C)(C)C)c1` [Compound 16], the “RA (%) MurC” value at E. coli MurC (setting [2]) was determined as 75%. Also, the “RA (%) MurD” value at E. coli MurD is on record as 96%. Further, on E. coli MurF (setting [2]), the “RA (%) MurF” value is listed as 69%.

As to `O=C1NC(=O)C(c2cccc(Cl)c2)=C1Nc1ccc(Cl)c(C(=O)O)c1` [SB-409513], the remaining activity at 100 µM turned out to be 94% at E. coli MurC (setting [1]), 88% at E. coli MurD and 78% on E. coli MurF.

`CC1=C(C(=O)Nc2cc(Cl)c3[nH]ncc3c2)C(c2ccc(C(F)(F)F)cc2)CC(=O)N1` (stereo not drawn) [GSK466317A]: the remaining activity at 100 µM at E. coli MurC (setting [1]) was found to be 80%; at E. coli MurD, 99%; at E. coli MurF, 71%.

Take `CS(=O)(=O)CCNCc1cc(-c2cc3c(Nc4ccc(OCc5cccc(F)c5)c(Cl)c4)ncnc3s2)cs1` [GSK300014A]: the remaining activity at 100 µM is 88% on E. coli MurC (setting [1]), 91% at E. coli MurD and 95% on E. coli MurF.

For the molecule `COc1cc2c(cc1Nc1nc(Nc3cccc(F)c3C(N)=O)c3cc[nH]c3n1)N(C(=O)CN1CCN(C(C)C)CC1)CC2` [GSK1751853A], the remaining activity at 100 µM stood at 55% at E. coli MurC (setting [1]), 74% on E. coli MurD and 89% at E. coli MurF.

For the molecule `c1ccc(Cc2nc3ccc(Nc4ncnc5ccccc45)cc3[nH]2)cc1` [GR269666A], the remaining activity at 100 µM on E. coli MurC (setting [1]) came to 77%; on E. coli MurD, 83%; at E. coli MurF, 96%.

On to `c1cc(-c2cnn3nc(N4CCOCC4)ccc23)nc(NC2CC2)n1` [GW708336X], for which the remaining activity at 100 µM came to 98% at E. coli MurC (setting [1]), 92% at E. coli MurD and 98% at E. coli MurF.

As for `Fc1ccc(-c2c(-c3ccncc3)nc3n2CCS3)cc1` [SKF-86055], the values for the remaining activity at 100 µM on E. coli MurC (setting [1]), on E. coli MurD and on E. coli MurF were 98%, 91% and 89%, respectively.

`COC(=O)Nc1nc2ccc(Sc3ccc(NC(=O)Nc4cc(C(F)(F)F)ccc4F)cc3)cc2[nH]1` [GW607049C]: the remaining activity at 100 µM on E. coli MurC (setting [1]) came out at 62%; at E. coli MurD, 80%; on E. coli MurF, 91%.

With `CCCN(CCS(C)(=O)=O)Cc1ccc(-c2ccc3ncnc(Nc4ccc(OCc5cccc(F)c5)c(Cl)c4)c3c2)o1` [GW621823A], the values for the remaining activity at 100 µM at E. coli MurC (setting [1]), on E. coli MurD and on E. coli MurF were 36%, 42% and 96%, respectively.

On to `COc1cc2c(cc1Nc1nc(N3CCc4ccccc43)c3cc[nH]c3n1)N(C(=O)CN(C)C)CC2` [GSK2186269A], for which the figures for the remaining activity at 100 µM on E. coli MurC (setting [1]), on E. coli MurD and on E. coli MurF were 23%, 100% and 26%, respectively.

Turning to `CS(=O)(=O)Nc1cccc(-c2ccc3c(NC(=O)C4CC4)n[nH]c3c2)c1` [SB-742864], the remaining activity at 100 µM amounted to 64% at E. coli MurC (setting [1]), 88% at E. coli MurD and 99% at E. coli MurF.

Consider `CN1CCC(n2cnc(-c3ccc(F)cc3)c2-c2ccnc(NCCO)n2)CC1` [SB-226879], for which the remaining activity at 100 µM at E. coli MurC (setting [3]) amounted to 65%; on E. coli MurD, 98%; on E. coli MurF, 68%.

In the case of `CCn1c(-c2nonc2N)nc2cncc(C(=O)N3CC[C@H](N)C3)c21` [SB-772077-B], on E. coli MurC (Table S1, PKIS screening), the “RA [%] at 100 µM MurC” value was determined as 77%. Moreover, the “RA [%] at 100 µM MurD” value on E. coli MurD was determined as 90. Also, on E. coli MurF, the “RA [%] at 100 µM MurF” value came to 80%.

Take `O=C1Nc2ccc(-c3cccnc3)cc2C1=Cc1cc(Br)c(O)c(Br)c1` [GW429374A]: the remaining activity at 100 µM at E. coli MurC (setting [1]) stood at 30%; at E. coli MurD, 51%; at E. coli MurF it was 16%.

As for `Nc1nc(-c2ccccn2)c(-c2ccc3ncccc3n2)s1` [GW693481X], the remaining activity at 100 µM at E. coli MurC (setting [1]) came to 99%; at E. coli MurD it was 88%; on E. coli MurF, 94%.

On to `COc1cc(C=NNc2ncnc3c2cnn3Cc2ccccc2)ccc1O` [GW643971X], for which the remaining activity at 100 µM was determined as 56% on E. coli MurC (setting [1]), 78% on E. coli MurD and 25% at E. coli MurF.

With `COc1c(C(N)=O)cc(-c2ccc(Cl)cc2)cc1-c1ccc(S(N)(=O)=O)cc1` [GSK711701A], the values for the remaining activity at 100 µM on E. coli MurC (setting [1]), on E. coli MurD and at E. coli MurF were 100%, 99% and 93%, respectively.

For the molecule `CCc1nccc2c1nc(-c1nonc1N)n2CC` [SB-751148], the remaining activity at 100 µM came out at 75% on E. coli MurC (setting [1]), 96% at E. coli MurD and 88% on E. coli MurF.

With `Cc1cc(-c2ccccn2)cc(C)c1/C=C/c1cncc(-c2nn[nH]n2)c1` [GW459057A], the remaining activity at 100 µM on E. coli MurC (setting [1]) worked out at 59%; on E. coli MurD it was 83%; at E. coli MurF it was 76%.

`COc1cccc(-n2cnc3c(N/N=C/c4ccncc4)ncnc32)c1` [GW813360X]: the remaining activity at 100 µM at E. coli MurC (setting [1]) turned out to be 65%; at E. coli MurD it was 84%; at E. coli MurF, 81%.

Turning to `CCc1ccc(Oc2nccc(-c3c(-c4ccc(F)cc4)ncn3C3CCNCC3)n2)cc1` [SB-242719], the remaining activity at 100 µM on E. coli MurC (setting [3]) came to 51%; on E. coli MurD, 87%; at E. coli MurF, 80%.

Take `Cc1cccc(Nc2ncc(-c3ccccc3)o2)c1` [GW632046X]: the results for the remaining activity at 100 µM at E. coli MurC (setting [1]), at E. coli MurD and at E. coli MurF were 100%, 84% and 97%, respectively.

With `COc1ccc(-c2nn3ncccc3c2-c2ccnc(Nc3ccc(F)c(F)c3)n2)cc1` [GW827396X], the remaining activity at 100 µM at E. coli MurC (setting [1]) was determined as 79%; on E. coli MurD it was 61%; on E. coli MurF, 61%.

Take `[O-][S+]1CCN(Cc2ccc(-c3ccc4ncnc(Nc5ccc(OCc6ccccc6)c(F)c5)c4c3)o2)CC1` [GW576924A]: the figures for the remaining activity at 100 µM on E. coli MurC (setting [1]), on E. coli MurD and at E. coli MurF were 39%, 85% and 58%, respectively.

For `Cc1nnc(-c2ccc(C)c(-c3ccc(C(=O)Nc4cccc(C#N)c4)cc3)c2)o1` [GW607117X], the remaining activity at 100 µM on E. coli MurC (setting [1]) worked out at 72%; on E. coli MurD, 100%; at E. coli MurF it was 90%.

For the molecule `Fc1ccc(-c2ncn(C3CCNCC3)c2-c2ccnc(Oc3ccc4c(c3)OCO4)n2)cc1` [SB-250715], the remaining activity at 100 µM on E. coli MurC (setting [3]) stood at 51%; at E. coli MurD, 65%; at E. coli MurF, 85%.

Turning to `COC(=O)Nc1nc2ccc(S(=O)(=O)c3ccc(NC(=O)Nc4cc(C(F)(F)F)ccc4F)cc3)cc2[nH]1` [GW680908A], the figures for the remaining activity at 100 µM at E. coli MurC (setting [1]), at E. coli MurD and on E. coli MurF were 77%, 69% and 97%, respectively.

Take `CS(=O)(=O)CCNCc1ccc(-c2ccc3ncnc(Nc4ccc(OCc5ccccc5)c(C(F)(F)F)c4)c3c2)o1` [GW574782A]: the remaining activity at 100 µM on E. coli MurC (setting [1]) was found to be 83%; at E. coli MurD, 60%; at E. coli MurF, 100%.

As to `COc1ccc(-c2cc(-c3c[nH]nc3-c3ccccn3)ccn2)cc1` [GW679410X#4], on E. coli MurC (Table S1, PKIS screening), the “RA [%] at 100 µM MurC” value was 61%. Also, the “RA [%] at 100 µM MurD” value on E. coli MurD came out at 98%. For the same molecule, the “RA [%] at 100 µM MurF” value on E. coli MurF worked out at 82%.

Turning to `[O-][S+]1CCN(Cc2ccc(-c3ccc4ncnc(Nc5ccc(OCc6cccc(F)c6)c(Cl)c5)c4c3)o2)CC1` [GW576609A], the remaining activity at 100 µM at E. coli MurC (setting [1]) is 71%; at E. coli MurD, 54%; at E. coli MurF, 78%.

With `CS(=O)(=O)CCNCc1ccc(-c2ccc3ncnc(Nc4ccc(OCc5cccc(F)c5)c(C(F)(F)F)c4)c3c2)o1` [GW576484X], the remaining activity at 100 µM stood at 100% at E. coli MurC (setting [1]), 55% at E. coli MurD and 100% at E. coli MurF.

As for SB-739245-AC, the “RA [%] at 100 µM MurC” value at E. coli MurC (Table S1, PKIS screening) amounted to 61%. For the same molecule, on E. coli MurD, the “RA [%] at 100 µM MurD” value was determined as 99%. Moreover, the “RA [%] at 100 µM MurF” value at E. coli MurF stood at 95%.

Turning to `COc1ccc2c(-c3ccnc(Nc4cccc(OC(F)(F)F)c4)n3)cnn2n1` [GW810372X], the figures for the remaining activity at 100 µM on E. coli MurC (setting [1]), on E. coli MurD and at E. coli MurF were 46%, 70% and 73%, respectively.

On to `CCS(=O)(=O)c1ccc(OC)c(Nc2ncc(-c3ccccc3Cl)o2)c1` [GW622055X], for which the results for the remaining activity at 100 µM on E. coli MurC (setting [1]), on E. coli MurD and on E. coli MurF were 74%, 65% and 80%, respectively.

With `O=C(O[C@H]1CN[C@H](C#Cc2cc3ncnc(Nc4ccc(OCc5cccc(F)c5)c(Cl)c4)c3s2)C1)N1CCOCC1` [GW869810X], the remaining activity at 100 µM was 65% on E. coli MurC (setting [1]), 55% at E. coli MurD and 77% at E. coli MurF.

Consider `O=C(Nc1n[nH]c2nc(-c3ccco3)c(Br)cc12)C1CC1` [SB-739452], for which the remaining activity at 100 µM at E. coli MurC (setting [1]) stood at 78%; on E. coli MurD, 84%; on E. coli MurF, 87%.

For the molecule `O=C1Nc2ccc(C(=O)c3ccco3)cc2C1=Cc1cc(Cl)c(O)c(Cl)c1` [GW406108X], the remaining activity at 100 µM at E. coli MurC (setting [1]) was 74%; on E. coli MurD, 85%; on E. coli MurF it was 79%.
